The subject of one data set is 786-0. The data set is described as follows: Cytotoxicity against human 786-0 cells assessed as cell growth at 0.5 uM after 48 hrs by SRB assay. It is filed as functional. The note with it: 786-0, 48 h, read-out: Activity.
A further data set deals with MDA-MB-468. The data set is described as follows: Cytotoxicity against human MDA-MB-468 cells assessed as cell growth at 50 nM after 48 hrs by SRB assay. It is filed as functional. The settings on record: MDA-MB-468, 48 h, read-out: Activity.
For a further data set, the system named is T47D. The data set is described as follows: Cytotoxicity against human T47D cells assessed as cell growth at 50 nM after 48 hrs by SRB assay. It is filed as functional. The note with it: read-out: Activity. (In general: In SRB staining, fixed cells bind dye roughly in proportion to their protein.)
Data set [1] has as its system NCI-H23. The data set is described as follows: Cytotoxicity against human NCI-H23 cells assessed as cell growth at 5 nM after 48 hrs by SRB assay. It is filed as functional. The note with it: NCI-H23, 48 h, read-out: Activity.
A short description of data set [2]: Cytotoxicity against human SKOV3 cells assessed as cell growth at 5 uM after 48 hrs by SRB assay. Format: functional. The settings on record: SK-OV-3, 48 h, read-out: Activity.
Data set [3] can be described thus: Cytotoxicity against human NCI-ADR-RES cells assessed as cell growth at 5 nM after 48 hrs by SRB assay. The settings on record: read-out: Activity. Format: functional.
The nature of data set [4]: Cytotoxicity against human UACC62 cells assessed as cell growth at 0.5 uM after 48 hrs by SRB assay. It is filed as functional. The note with it: UACC-62, 48 h, read-out: Activity.
In a further data set the test system is SR. The data set is described as follows: Cytotoxicity against human SR cells assessed as cell growth at 0.5 uM after 48 hrs by SRB assay. Format: functional. The settings on record: read-out: Activity.
Data set [5] is described as follows: Cytotoxicity against human OVCAR3 cells assessed as cell growth at 50 uM after 48 hrs by SRB assay. Format: functional. The settings on record: OVCAR-3, 48 h, read-out: Activity.
A short description of data set [6]: Cytotoxicity against human TK10 cells assessed as cell growth at 0.5 uM after 48 hrs by SRB assay. It is filed as functional. The settings on record: TK-10, 48 h, read-out: Activity.
Data set [7] deals with NCI-H23. The data set is described as follows: Cytotoxicity against human NCI-H23 cells assessed as cell growth at 0.5 uM after 48 hrs by SRB assay. It is filed as functional. The settings on record: NCI-H23, 48 h, read-out: Activity.
A further data set deals with SK-MEL-28. The data set is described as follows: Cytotoxicity against human SK-MEL-28 cells assessed as cell growth at 5 nM after 48 hrs by SRB assay. The settings on record: SK-MEL-28, 48 h, read-out: Activity. Format: functional.
For another data set, the system named is NCI-H460. The data set is described as follows: Cytotoxicity against human NCI-H460 cells assessed as cell growth at 5 uM after 48 hrs by SRB assay. It is filed as functional. The note with it: NCI-H460, 48 h, read-out: Activity.
The test system of another data set is U-251. The data set is described as follows: Cytotoxicity against human U251 cells assessed as cell growth at 5 uM after 48 hrs by SRB assay. Format: functional. The settings on record: U-251, 48 h, read-out: Activity.
Data set [8] can be described thus: Metabolic stability in human liver microsomes assessed as remaining parent compound level at 10 uM after 3 hrs in presence of NAPDH by LC/MS analysis. Format: ADME. The settings on record: read-out: Drug metabolism. Background: Liver microsomes are vesicles of endoplasmic reticulum, rich in cytochrome P450 enzymes.
For data set [9], the system named is MDA-MB-231. The data set is described as follows: Cytotoxicity against human MDA-MB-231 cells assessed as cell growth at 50 nM after 48 hrs by SRB assay. Format: functional. The note with it: MDA-MB-231, 48 h, read-out: Activity.
Data set [10] concerns M14. The data set is described as follows: Cytotoxicity against human M14 cells assessed as cell growth at 5 nM after 48 hrs by SRB assay. It is filed as functional. The settings on record: M14, 48 h, read-out: Activity.
Data set [11] is described as follows: Cytotoxicity against human SKOV3 cells assessed as cell growth at 50 nM after 48 hrs by SRB assay. It is filed as functional. The settings on record: SK-OV-3, 48 h, read-out: Activity.
Data set [12] is described as follows: Cytotoxicity against human HOP92 cells assessed as cell growth at 5 nM after 48 hrs by SRB assay. It is filed as functional. The note with it: HOP-92, 48 h, read-out: Activity.
Data set [13] can be described thus: Cytotoxicity against human SW620 cells assessed as cell growth at 10^-8 M after 48 hrs by SRB assay. Format: functional. The settings on record: SW-620, 48 h, read-out: Activity.
Data set [14] has as its system NCI-H23. The data set is described as follows: Cytotoxicity against human NCI-H23 cells assessed as cell growth at 10^-8 M after 48 hrs by SRB assay. Format: functional. The settings on record: NCI-H23, 48 h, read-out: Activity.
The test system of the next data set is ACHN. The data set is described as follows: Cytotoxicity against human ACHN cells assessed as cell growth at 10^-8 M after 48 hrs by SRB assay. The settings on record: read-out: Activity. It is filed as functional.
Data set [15] relates to MDA-MB-231. The data set is described as follows: Cytotoxicity against human MDA-MB-231 cells assessed as cell growth at 10^-6 M after 48 hrs by SRB assay. It is filed as functional. The settings on record: MDA-MB-231, 48 h, read-out: Activity.
Data set [16] can be described thus: Cytotoxicity against human PC3 cells assessed as cell growth at 10^-8 M after 48 hrs by SRB assay. Format: functional. The settings on record: PC-3, 48 h, read-out: Activity.
A short description of data set [17]: Cytotoxicity against human SF268 cells assessed as cell growth at 10^-7 M after 48 hrs by SRB assay. Format: functional. The note with it: SF-268, 48 h, read-out: Activity.
The next data set deals with CCRF-CEM. The data set is described as follows: Cytotoxicity against human CCRF-CEM cells assessed as cell growth at 10^-6 M after 48 hrs by SRB assay. The settings on record: read-out: Activity. Format: functional.
Data set [18] in a line: Cytotoxicity against human PC3 cells assessed as cell growth at 10^-7 M after 48 hrs by SRB assay. It is filed as functional. The note with it: PC-3, 48 h, read-out: Activity.
Data set [19] in a line: Cytotoxicity against human LOXIMVI cells assessed as cell growth at 10^-4 M after 48 hrs by SRB assay. The note with it: LOX IMVI, read-out: Activity. Format: functional.
The test system of data set [20] is MDA-MB-435. The data set is described as follows: Cytotoxicity against human MDA-MB-435 cells assessed as cell growth at 10^-4 M after 48 hrs by SRB assay. It is filed as functional. The settings on record: MDA-MB-435, 48 h, read-out: Activity.
In data set [21] the test system is M14. The data set is described as follows: Cytotoxicity against human M14 cells assessed as cell growth at 10^-5 M after 48 hrs by SRB assay. Format: functional. The note with it: M14, 48 h, read-out: Activity.
Data set [22] is described as follows: Cytotoxicity against human SW620 cells assessed as cell growth at 10^-5 M after 48 hrs by SRB assay. It is filed as functional. The settings on record: SW-620, 48 h, read-out: Activity.
Data set [23] in a line: Cytotoxicity against human SF268 cells assessed as cell growth at 10^-6 M after 48 hrs by SRB assay. It is filed as functional. The note with it: SF-268, 48 h, read-out: Activity.
For data set [24], the system named is MDA-MB-435. The data set is described as follows: Cytotoxicity against human MDA-MB-435 cells assessed as cell growth at 10^-6 M after 48 hrs by SRB assay. The settings on record: MDA-MB-435, 48 h, read-out: Activity. Format: functional.
The next data set has as its system SK-MEL-5. The data set is described as follows: Cytotoxicity against human SK-MEL-5 cells assessed as cell growth at 10^-6 M after 48 hrs by SRB assay. It is filed as functional. The note with it: SK-MEL-5, 48 h, read-out: Activity.
For another data set, the system named is A498. The data set is described as follows: Cytotoxicity against human A498 cells assessed as cell growth at 10^-8 M after 48 hrs by SRB assay. The settings on record: A498, 48 h, read-out: Activity. Format: functional.
A further data set concerns MCF7. The data set is described as follows: Cytotoxicity against human MCF7 cells assessed as cell growth at 10^-6 M after 48 hrs by SRB assay. It is filed as functional. The settings on record: MCF7, 48 h, read-out: Activity.
For data set [25], the system named is Malme-3M. The data set is described as follows: Cytotoxicity against human MALME-3M cells assessed as cell growth at 10^-7 M after 48 hrs by SRB assay. The note with it: read-out: Activity. Format: functional.
Data set [26] has as its system Malme-3M. The data set is described as follows: Cytotoxicity against human MALME-3M cells assessed as cell growth at 10^-6 M after 48 hrs by SRB assay. Format: functional. The note with it: read-out: Activity.
Another data set has as its system HT-29. The data set is described as follows: Cytotoxicity against human HT-29 cells assessed as cell growth at 10^-5 M after 48 hrs by SRB assay. It is filed as functional. The note with it: HT-29, 48 h, read-out: Activity.
Another data set relates to NCI-H226. The data set is described as follows: Cytotoxicity against human NCI-H226 cells assessed as cell growth at 10^-7 M after 48 hrs by SRB assay. Format: functional. The settings on record: NCI-H226, 48 h, read-out: Activity.
Data set [27] can be described thus: Cytotoxicity against human IGROV1 cells assessed as cell growth at 10^-5 M after 48 hrs by SRB assay. It is filed as functional. The note with it: IGROV-1, 48 h, read-out: Activity.

With `CCCCCCCCCC(=O)Oc1ccc(/C(=C(/C)c2ccccc2)c2ccc(OCCN3CCCC3)cc2)cc1`, the growth at 0.5 µM in the data set with 786-0 is 79%; in [4] it was 64%; in the data set on SR, 60%; in [6] it was 90%; in the data set with NCI-H23 [7] it was 71%. The growth at 0.05 µM in the data set on MDA-MB-468 came out at 100%; in the data set with T47D, 62%; with MDA-MB-231 [9], 105%; in [11], 90%. The growth at 0.005 µM came to 92% in the data set with NCI-H23 [1]; 101% in data set [3]; 104% with SK-MEL-28; 98% in the data set on M14 [10]; 86% in data set [12]. Besides, the figures for the growth at 5 µM (in [2]; in the data set with NCI-H460; in the data set on U-251) were 78%, 92% and 86%, respectively. Moreover, in data set [5], the growth at 50 µM was -84%. In addition, the remaining at 3 h, 10 µM in data set [8] was found to be 63%.
As to `C/C(=C(/c1ccc(O)cc1)c1ccc(OCCN2CCCC2)cc1)c1ccccc1`, the growth at 0.01 µM turned out to be 102% in data set [13]; 92% with NCI-H23 [14]; 93% with ACHN; 104% in data set [16]; 66% in the data set on A498. Moreover, the growth at 1 µM turned out to be 122% in the data set with MDA-MB-231 [15]; 102% in the data set with CCRF-CEM; 88% in data set [23]; 87% with MDA-MB-435 [24]; 96% in the data set with SK-MEL-5; 36% in the data set on MCF7. Also, the growth at 1 µM with Malme-3M [26] is 88%. Also, the growth at 0.1 µM came out at 94% in [17], 105% in data set [18], 91% with Malme-3M [25] and 95% in the data set with NCI-H226. In addition, the growth at 100 µM in data set [19] is -93%; with MDA-MB-435 [20] it was -100%. Also, the growth at 10 µM in the data set on M14 [21] is -58%; in data set [22] it was -40%; in the data set with HT-29, -66%; in data set [27], 41%.

Values taken from ChEMBL document CHEMBL3774317, “Design and synthesis of novel tamoxifen analogues that avoid CYP2D6 metabolism” (Eur J Med Chem, 2016).
